Laboratory results taken from publication PMC12187371 (Neuro-Oncology, 2024).

Tests used:
normal human fibroblasts [1] = assay: Normal human fibroblast viability; format: cell-based; settings: WST-8, 3 days
HEI-193 cells [2] = assay: HEI-193 cell viability; format: cell-based, human; settings: WST-8, 3 days
normal human fibroblasts [3] = assay: Apoptosis markers in normal human fibroblasts; format: cell-based; settings: 1 day
HEI-193 cells [4] = assay: Western blotting of differentiation and cell cycle markers in HEI-193 cells; format: cell-based, human; settings: 7 days
[5] = system: NF2-associated vestibular schwannomas; settings: progressive NF2-associated vestibular schwannomas; cited from earlier work

Molecule | toxicity in human normal fibroblasts (normal human fibroblasts [1]) | proliferation of HEI-193 cells (HEI-193 cells [2]) | cytochrome c release from mitochondria (normal human fibroblasts [3]) | expression of SOX10, MBP, p21 and p27 (HEI-193 cells [4]) | expression of stem cell factor SOX2 (HEI-193 cells [4]) | patients with improved hearing and reduced tumor volume [5]
COc1cc(N2CCC(N3CCN(C)CC3)CC2)ccc1Nc1ncc(Cl)c(Nc2ccccc2P(C)(C)=O)n1 [Brigatinib] | showed toxicity | dose-dependently reduced | induced cytochrome c release | decreased the expression of all these markers | decreased the expression of all these markers | –
Cn1cnc2c(F)c(Nc3ccc(Br)cc3Cl)c(C(=O)NOCCO)cc21 [Selumetinib] | – | did not exhibit any effect | – | – | – | –
Bevacizumab | – | – | – | – | – | about 40 % of patients
